Assay results from patent publication US4767778A (Institut National de la Sante et de la Recherche Medicale …, priority 1985, dated 1988).
Where two headings read alike, the source gives them in different places.

Key:
[1] = system: H1 /H2 receptors; settings: histamine = 100%; cited from earlier work
[2] = target: T1, H3 autoreceptors (Rattus norvegicus, UniProt Q9QYN8)
[3] = system: H3 receptors; experiment: Inhibition of the synthesis of (3H) histamine in rats in vivo; design: species or system rat; settings: for (3) histamine (% of the total radioactivity × 10^-3), Treated: 10 minutes
[4] = target: T1, H3 autoreceptors; settings: slices of rat brain
[5] = system: H3 receptors; experiment: Inhibition of synthesis of histamine in slices of human cerebral cortex and posterior hypothalamus; type: cell-based; settings: slices of human cerebral cortex and posterior hypothalamus (mamillary)

T1 sequence (Q9QYN8 whole entry): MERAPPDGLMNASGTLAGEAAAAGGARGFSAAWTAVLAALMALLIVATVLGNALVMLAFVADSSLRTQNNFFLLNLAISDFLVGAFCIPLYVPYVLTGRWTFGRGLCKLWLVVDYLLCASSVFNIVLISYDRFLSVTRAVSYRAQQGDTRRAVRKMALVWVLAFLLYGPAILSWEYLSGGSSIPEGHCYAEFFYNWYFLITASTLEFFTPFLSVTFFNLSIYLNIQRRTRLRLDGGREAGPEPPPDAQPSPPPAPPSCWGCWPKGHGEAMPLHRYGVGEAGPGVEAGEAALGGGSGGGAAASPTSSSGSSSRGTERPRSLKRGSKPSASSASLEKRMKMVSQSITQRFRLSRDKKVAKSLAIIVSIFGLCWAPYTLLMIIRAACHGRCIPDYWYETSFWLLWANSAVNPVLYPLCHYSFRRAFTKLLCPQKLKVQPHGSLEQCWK

Row | Structure (SMILES) | Activity relative to histamine (%) H1 /H2 receptors [1] | EC50 [2] | Activity relative to histamine (%) H3 receptors ([2]; histamine = 100% (EC50 […] nM)) | also measured
1 | C[C@](N)(Cc1c[nH]cn1)C(=O)O (racemic) [6 (R, S), α-methylhistidine] | inactive | 1000 ± 500 nM | 6% | –
2 | CC(C)(N)Cc1c[nH]cn1 [compound 2, 4-(2-methyl 2-aninopropyl)-imidazole] | < 1% | 20 ± 10 nM | – | Activity relative to histamine (%) H3 receptors [2]: 300%
3 | C[C@@H](N)Cc1c[nH]cn1 [1 (R), 4-(2-aminopropyl)-imidazole] | – | – | – | effect on the synthesis of (3H) histamine in the brain and peripheral tissues ([3]; 10 mg/kg, simultaneous with (3H)-L-histidine, completely reversed by an H3 antagonist): significantly reduces; (3) histamine (% of the total radioactivity × 10^-3), Treated ([3]; Cerebral cortex, 10 mg/kg i.v. with (3H)-L-histidine, controls 95 ± 6): 53 ± 6 % of the total radioactivity ×; Variation (%) ([3]; Cerebral cortex, 10 mg/kg i.v., p < 0.01): -45%; (3) histamine (% of the total radioactivity × 10^-3), Treated ([3]; Hypothalmus, 10 mg/kg i.v., controls 272 ± 11): 185 ± 32 % of the total radioactivity ×; Variation (%) ([3]; Hypothalmus, 10 mg/kg i.v., p < 0.01): -32%; Variation (%) ([3]; Kidneys, 10 mg/kg i.v., p < 0.05): -30%; (3) histamine (% of the total radioactivity × 10^-3), Treated ([3]; Lungs, 10 mg/kg i.v., controls 138 ± 10): 94 ± 10 % of the total radioactivity ×; Variation (%) ([3]; Lungs, 10 mg/kg i.v., p < 0.05): -32%; (3) histamine (% of the total radioactivity × 10^-3), Treated ([3]; Spleen, 10 mg/kg i.v., controls 60 ± 8): 42 ± 5 % of the total radioactivity ×; Variation (%) ([3]; Spleen, 10 mg/kg i.v., p < 0.05): -30%
4 | NCCc1c[nH]cn1 [histamine, reference compound] | – | – | – | maximal inhibition of the stimulation by potassium of the synthesis of (3H) histamine [4]: approximately 70%; maximal inhibition of release of (3H) histamine ([2]; slices of rat brain): approximately 60%
5 | CC(N)Cc1c[nH]cn1 (racemic) [compound 1, 4-(2-aminopropyl)-imidazole] | – | – | – | effect on synthesis of histamine [5]: inhibits
6 | CC(C)(CN)c1c[nH]cn1 [compound 4, 4-(1,1-dimethyl 2-aminoethyl)-imidazole] | < 0.1% | 50 ± 20 nM | 120% | –
7 | CC(CN)c1c[nH]cn1 (racemic) [3 (R, S), 4-(1-methyl 2-aminoethyl)-imidazole] | 2-2% | 20 ± 5 nM | 120% | –
8 | NC1CC1c1c[nH]cn1 (stereo not shown) [compound 5, 2-(4-imidazolyl)-cyclopropylamine] | < 1% | < 100 nM | > 60% | –
